This is an account of results in US6617332B1, “Tan-1057 derivatives” (Bayer Aktiengesellschaft, priority 1998, dated 2003).

Where a name gives a salt, the structure may show the parent alone.

Series [1] concerns S. aureus 133. Nature of the series: Determination of the minimum inhibitory concentration (MIC), liquid dilution test. The series is classed as cell-based. The note with it: Staphylococcus aureus; S. aureus 133; overnight culture diluted 1:1000 with foetal calf serum; 37° C., 18-24 hours; lowest concentration without visible growth; read-out: MIC in FCS (S.aureus; μg/ml). As for the experimental part: The MIC was determined using the liquid dilution test. Overnight cultures of the test germs (S. aureus 133) in Isosensitest bouillon were diluted 1:1000 with foetal calf serum (FCS) or Isosensitest bouillon and incubated with dilutions of the test substances (successive dilutions of 1:2).
The cultures were incubated at 37° C. for 18-24 hours. In each case the lowest concentration of substance at which no visible bacterial growth took place, was defined as MIC.

The nature of series [2]: Neutral Red vitality test using J774.A1 cells. The note with it: mouse; J774.A1 murine macrophage cells, 72 hours with substance; vitality reduced to 50% of untreated control. It counts as cell-based, murine. As to the method: Compatibility tests of the exemplary compounds were carried out using cultures of eukaryotic cells. Hepatocytes (HepG2) and murine macrophage cells (J774.A1) were used as indicator for organ-specific toxicity. The murine macrophage cell line used is a particularly sensitive indicator for toxic effects.
In each case 1.2×10^4 cells were incubated at 37° C. for 24 hours. Test substances were added at different concentrations, and the cells were incubated for another 72 hours. The cells were then treated with 50 μl of Neutral Red solution (Sigma, No. N 2889) for 2 hours, washed with PBS medium and denaturated using an ethanol/glacial acetic acid mixture.
The cultures were measured in an Elisa reader at 540 nm and 630 nm. The IC50 values were extrapolated and indicate at which concentration the vitality of the cells, measured by the uptake of Neutral Red, is reduced to 50%, compared to untreated control cells.

As usually defined, the MIC is the smallest concentration in the dilution series that meets the test's criterion for growth inhibition. Consider `CN(C(=O)CC[C@@H](N)CCCN)C1CNC(NC(N)=O)=NC1=O` (stereo partly drawn) [Example 11, (4′S,5R,S)-5-[N-Methyl-N-(4′,7′-diaminoheptanoyl)amino]-5,6-dihydro-2-ureido-4(1H)-pyrimidone Dihydrochloride], for which, in series [1], the MIC stood at 3.2 µg/mL. For orientation: IC50 means the concentration needed to halve the response being measured. Low values mean higher potency, high ones lower potency. In the case of `CN(C(=O)C[C@@]1(N)C[C@H]1CCNC(=N)N)C1CNC(NC(N)=O)=NC1=O` (stereo partly shown) [Example 3, 5-{N-Methyl-N-2′-[1-amino-2-(2-guanidinoethyl)cyclopropyl]acetamino}-5,6-dihydro-2-ureido-4(1H)-pyrimidone Dihydrochloride], in series [1], the MIC amounted to 100 µg/mL. This compound also returned an IC50 at 72 h in series [2] of 40 µg/mL.

Regarding `CN(C(=O)C[C@@H](N)CCCCN)C1CNC(NC(N)=O)=NC1=O` (stereo partly drawn) [Example 5, (3′S,5R,S)-5-[N-Methyl-N-(3′,7′-diaminoheptanoyl)amino]-5,6-dihydro-2-ureido-4(1H)-pyrimidone Dihydrochloride], in series [1], the MIC amounted to 0.1 µg/mL. Also, the midpoint of inhibition in series [2], the IC50 at 72 h, lay at 6 µg/mL.

For the compound `COC(=O)NCCC[C@H](N)CC(=O)N(C)C1CNC(NC(N)=O)=NC1=O.Cl` (stereo partly drawn) [Example 16, (3′S,5R,S)-5-[N-Methyl-N-(3′-amino-6′-methoxycarbonylaminohexanoyl)-amino]-5,6-dihydro-2-ureido-4(1H)-pyrimidone Hydrochloride], the MIC in series [1] was 100 µg/mL. In the case of `CCNCCC[C@H](N)CC(=O)N(C)C1CNC(NC(N)=O)=NC1=O` (stereo partly drawn) [Example 7, (3′S,5R,S)-5-[N-Methyl-N-(3′-amino-6′-ethylaminohexanoyl)amino]-5,6-dihydro-2-ureido-4(1H)-pyrimidone Dihydrochloride], the MIC in series [1] is 0.8 µg/mL. Also, the IC50 at 72 h in series [2] was 50 µg/mL. For `N=C(N)NCCC[C@H](N)CC(=O)NC1CNC(NC(N)=O)=NC1=O` (stereo partly drawn) [Example 9, (3′R,5R,S)-5-[N-(3′-amino-6′-guanidinohexanoyl)amino]-5,6-dihydro-2-ureido-4(1H)-pyrimidone Dihydrochloride], the MIC in series [1] is 1.6 µg/mL. With `CN(C(=O)CC(N)CCC#N)C1CNC(NC(N)=O)=NC1=O.Cl` [Example 18, (3′R,S,5R,S)-5-[N-Methyl-N-(3′-amino-5′-cyanopentanoyl)amino]-5,6-dihydro-2-ureido-4(1H)-pyrimidone Hydrochloride], the MIC in series [1] amounted to 12.5 µg/mL. As to `CN(C(=O)C[C@H](N)CCCN)C1CNC(NC(N)=O)=NC1=O` (stereo partly drawn) [Example 12, (3′R,5R,S)-5-[N-Methyl-N-(3′,6′-diaminohexanoyl)amino]-5,6-dihydro-2-ureido-4(1H)-pyrimidone Dihydrochloride], the MIC in series [1] is 6.3 µg/mL. With `CCN(C(=O)C[C@@H](N)CCCN)C1CNC(NC(N)=O)=NC1=O` (stereo partly drawn) [Example 10, (3′S,5R,S)-5-[N-Ethyl-N-(3′,6′-diaminohexanoyl)amino]-5,6-dihydro-2-ureido-4(1H)-pyrimidone Dihydrochloride], the MIC in series [1] worked out at 3.2 µg/mL. Still for that read-out and setting: as for `NCCC[C@H](N)CC(=O)NC1CNC(NC(N)=O)=NC1=O` (stereo partly drawn) [Example 14, (3′R,5R,S)-5-[N-(3′,6′-Diaminohexanoyl)amino]-5,6-dihydro-2-ureido-4(1H)-pyrimidone Dihydrochloride], the figure is 12.5 µg/mL; as for `CCN(C(=O)C[C@@H](N)CCCNC(=N)N)C1CNC(NC(N)=O)=NC1=O` (stereo partly drawn) [Example 15, (3′S,5R,S)-5-[N-Ethyl-N-(3′-amino-6′-guanidinohexanoyl)amino]-5,6-dihydro-2-ureido-4(1H)-pyrimidone Dihydrochloride], 100 µg/mL; as for `CN(C(=O)CC(N)CCCCCN)C1CNC(NC(N)=O)=NC1=O` [Example 17, (3′R,S,5R,S)-5-[N-Methyl-N-(3′,8′-diaminooctanoyl)amino]-5,6-dihydro-2-ureido-4(1H)-pyrimidone Dihydrochloride], 6.3 µg/mL. For `CN(C(=O)C[C@@H](N)CCC(N)=O)C1CNC(NC(N)=O)=NC1=O.Cl` (stereo partly drawn) [Example 13, (3′R,5R,S)-5-[N-Methyl-N-(3′-amino-5′-carbamoyl-pentanoyl)amino]-5,6-dihydro-2-ureido-4(1H)-pyrimidone Dihydrochloride], in series [1], the MIC worked out at 12.5 µg/mL.
